{
  "source": "patent US20080318993A1",
  "about": "(Endo Pharmaceuticals, Inc., priority 2007, published 2008)",
  "key": {"[1]": {"experiment": "Example 5: plasma pharmacokinetics of EN3202 20 mg in hepatic impairment vs healthy controls", "parameters": "AUC point estimate, mild hepatic impairment vs healthy controls / Cmax point estimate, mild hepatic impairment vs healthy controls: unit not given beside the values", "conditions": "for AUCT / Cmax / T½ / λz / AUC: mean (SD); for Tmax: median (range); for AUC: plasma, single 20 mg EN3202, fasting; for mean (±SD) ratio of plasma metabolite AUC to oxymorphone AUC: AUC converted to molar concentrations; for increase in average AUC relative to controls: arithmetic means; for conversion of oxymorphone to the metabolite reduced by: from mean plasma metabolite ratios", "experimental": "(§1) While in the clinic, the subjects were to refrain from strenuous physical activity.\nAll study medications were supplied by the sponsor. […] A single 20 mg dose EN3202 was administered following an overnight fast (from approximately 22:00 on the evening prior to dose administration) at approximately 08:00, and participants were not allowed to eat until at least four hours after the dose.\nAll doses were administered with 240 mL of ambient water. Participants were instructed to drink all of the water.\nPharmacokinetic parameters were calculated using model-independent methods.\nAll pharmacokinetic results are summarized using appropriate descriptive statistics. […] One-way ANOVA was conducted using the model PKVAR=group, where group was mild hepatic impairment, moderate-severe hepatic impairment, or healthy control. Point estimates of the impaired versus control group differences and the corresponding 90% confidence limits were constructed."}, "[2]": {"experiment": "Example 5: urinary excretion of oxymorphone and metabolites in hepatic impairment vs healthy controls", "conditions": "for mean amount excreted in the urine: percent of administered dose, through 120 hours; for conversion of oxymorphone to the metabolite reduced by: from urine ratios", "description": "as §1"}, "[3]": {"conditions": "10 mg oral oxymorphone, cited from earlier work"}, "[4]": {"conditions": "moderate-severe hepatic impairment"}},
  "data": [
    {"smiles": "CN1CC[C@]23c4c5ccc(O)c4O[C@H]2C(O)CC[C@@]3(O)[C@H]1C5", "note": "(stereo partly drawn) [6-OH-oxymorphone, 6-hydroxy oxymorphone]", "values": [
      {"measurement": "AUCT", "setting": "[1]; Healthy Controls", "value": "10.80 (9.65) ng · hr/mL"},
      {"measurement": "Cmax", "setting": "[1]; Healthy Controls", "value": "0.72 (0.32) ng/mL"},
      {"measurement": "T½", "setting": "[1]; Healthy Controls", "value": "19.19 (11.75) hr"},
      {"measurement": "λz", "setting": "[1]; Healthy Controls", "value": "0.0532 (0.0356) hr^−1"},
      {"measurement": "Tmax", "setting": "[1]; Healthy Controls", "value": "1.25 (1.0-4.0) hr"},
      {"measurement": "AUC", "setting": "[1]; Healthy Controls", "value": "14.76 (11.51) ng · hr/mL"},
      {"measurement": "AUCT", "setting": "[1]; Mild Impairment", "value": "14.11 (9.73) ng · hr/mL"},
      {"measurement": "Cmax", "setting": "[1]; Mild Impairment", "value": "1.12 (0.79) ng/mL"},
      {"measurement": "T½", "setting": "[1]; Mild Impairment", "value": "17.54 (13.12) hr"},
      {"measurement": "λz", "setting": "[1]; Mild Impairment", "value": "0.0545 (0.0269) hr^−1"},
      {"measurement": "Tmax", "setting": "[1]; Mild Impairment", "value": "1.25 (0.5-3.0) hr"},
      {"measurement": "AUC", "setting": "[1]; Mild Impairment", "value": "17.35 (11.17) ng · hr/mL"},
      {"measurement": "AUCT", "setting": "[1]; Moderate-Severe Impairment", "value": "29.25 (20.17) ng · hr/mL"},
      {"measurement": "Cmax", "setting": "[1]; Moderate-Severe Impairment", "value": "1.78 (1.00) ng/mL"},
      {"measurement": "T½", "setting": "[1]; Moderate-Severe Impairment", "value": "13.87 (8.02) hr"},
      {"measurement": "λz", "setting": "[1]; Moderate-Severe Impairment", "value": "0.0632 (0.0303) hr^−1"},
      {"measurement": "Tmax", "setting": "[1]; Moderate-Severe Impairment", "value": "1.75 (1.0-6.0) hr"},
      {"measurement": "AUC", "setting": "[1]; Moderate-Severe Impairment", "value": "32.12 (19.80) ng · hr/mL"},
      {"measurement": "mean (±SD) ratio of plasma metabolite AUC to oxymorphone AUC", "setting": "[1]; controls", "value": "0.66 (0.30)"},
      {"measurement": "increase in average AUC relative to controls", "setting": "[1]; mild hepatic impairment", "value": 1.18, "unit": "fold"},
      {"measurement": "conversion of oxymorphone to the metabolite reduced by", "setting": "[1]; mild hepatic impairment", "value": "approximately 17%"},
      {"measurement": "AUC increase relative to healthy controls", "setting": "[1]; mild hepatic impairment, log-transformed comparison", "value": 1.36, "unit": "fold"},
      {"measurement": "mean (±SD) ratio of plasma metabolite AUC to oxymorphone AUC", "setting": "[1]; mild impairment", "value": "0.55 (0.10)"},
      {"measurement": "Cmax increase relative to healthy controls", "setting": "[1]; mild impairment, log-transformed comparison", "value": 1.40, "unit": "fold"},
      {"measurement": "conversion of oxymorphone to the metabolite reduced by", "setting": "[1]; [4]", "value": "~26", "unit": "%"},
      {"measurement": "mean (±SD) ratio of plasma metabolite AUC to oxymorphone AUC", "setting": "[1]; moderate-severe impairment", "value": "0.49 (0.37)"},
      {"measurement": "increase in average AUC relative to controls", "setting": "[1]; moderate-severe impairment", "value": 2.18, "unit": "fold"},
      {"measurement": "urinary excretion essentially complete by", "setting": "[2]; after single 20 mg dose", "value": "≤ 96", "unit": "h"},
      {"measurement": "mean amount excreted in the urine", "setting": "[2]; control group", "value": 0.25, "unit": "%"},
      {"measurement": "mean amount excreted in the urine", "setting": "[2]; mild hepatic impairment", "value": 0.71, "unit": "%"},
      {"measurement": "mean amount excreted in the urine", "setting": "[2]; [4]", "value": 0.88, "unit": "%"},
      {"measurement": "Urinary recovery, conjugated", "setting": "[3]", "value": 2.6, "unit": "%"},
      {"measurement": "Urinary recovery, free", "setting": "[3]", "value": "~0.3", "unit": "%"},
      {"measurement": "Urinary recovery, of the dose", "setting": "[3]; free plus conjugated", "value": "approximately 3%"}
    ]},
    {"smiles": "CN1CC[C@]23c4c5ccc(O[C@@H]6O[C@H](C(=O)O)[C@@H](O)[C@H](O)[C@H]6O)c4O[C@H]2C(=O)CC[C@@]3(O)[C@H]1C5", "note": "[Oxymorphone-3-glucuronide, oxymorphone-3-glucuronide]", "values": [
      {"measurement": "AUCT", "setting": "[1]; Healthy Controls", "value": "2886.8 (883.9) ng · hr/mL"},
      {"measurement": "Cmax", "setting": "[1]; Healthy Controls", "value": "234.3 (41.7) ng/mL"},
      {"measurement": "T½", "setting": "[1]; Healthy Controls", "value": "8.89 (3.00) hr"},
      {"measurement": "λz", "setting": "[1]; Healthy Controls", "value": "0.0859 (0.0264) hr^−1"},
      {"measurement": "Tmax", "setting": "[1]; Healthy Controls", "value": "3.0 (1.5-4.0) hr"},
      {"measurement": "AUC", "setting": "[1]; Healthy Controls", "value": "2979.6 (896.1) ng · hr/mL"},
      {"measurement": "AUCT", "setting": "[1]; Mild Impairment", "value": "2836.7 (1091.9) ng · hr/mL"},
      {"measurement": "Cmax", "setting": "[1]; Mild Impairment", "value": "274.1 (95.8) ng/mL"},
      {"measurement": "T½", "setting": "[1]; Mild Impairment", "value": "8.21 (3.87) hr"},
      {"measurement": "λz", "setting": "[1]; Mild Impairment", "value": "0.0974 (0.0367) hr^−1"},
      {"measurement": "Tmax", "setting": "[1]; Mild Impairment", "value": "3.0 (3.0-4.0) hr"},
      {"measurement": "AUC", "setting": "[1]; Mild Impairment", "value": "2954.1 (1136.2) ng · hr/mL"},
      {"measurement": "AUCT", "setting": "[1]; Moderate-Severe Impairment", "value": "2629.3 (1457.8) ng · hr/mL"},
      {"measurement": "Cmax", "setting": "[1]; Moderate-Severe Impairment", "value": "212.0 (100.5) ng/mL"},
      {"measurement": "T½", "setting": "[1]; Moderate-Severe Impairment", "value": "7.40 (2.98) hr"},
      {"measurement": "λz", "setting": "[1]; Moderate-Severe Impairment", "value": "0.1075 (0.0435) hr^−1"},
      {"measurement": "Tmax", "setting": "[1]; Moderate-Severe Impairment", "value": "3.5 (3.0-4.0) hr"},
      {"measurement": "AUC", "setting": "[1]; Moderate-Severe Impairment", "value": "2713.9 (1498.6) ng · hr/mL"},
      {"measurement": "mean (±SD) ratio of plasma metabolite AUC to oxymorphone AUC", "setting": "[1]; controls", "value": "104.1 (39.5)"},
      {"measurement": "circulating concentrations exceed those of the parent compound by", "setting": "[1]; healthy control group", "value": "approximately 100 fold"},
      {"measurement": "AUC point estimate, mild hepatic impairment vs healthy controls", "setting": "[1]; mild hepatic impairment", "value": 0.972},
      {"measurement": "Cmax point estimate, mild hepatic impairment vs healthy controls", "setting": "[1]; mild hepatic impairment", "value": 1.133},
      {"measurement": "conversion of oxymorphone to the metabolite reduced by", "setting": "[1]; mild hepatic impairment", "value": "approximately 35%"},
      {"measurement": "mean (±SD) ratio of plasma metabolite AUC to oxymorphone AUC", "setting": "[1]; mild impairment", "value": "67.2 (27.0)"},
      {"measurement": "conversion of oxymorphone to the metabolite reduced by", "setting": "[1]; [4]", "value": "~56", "unit": "%"},
      {"measurement": "AUC as percent of control", "setting": "[1]; moderate-severe impairment", "value": "approximately 80%"},
      {"measurement": "Cmax as percent of control", "setting": "[1]; moderate-severe impairment", "value": "approximately 80%"},
      {"measurement": "circulating concentrations exceed those of the parent compound by", "setting": "[1]; moderate-severe impairment", "value": 45, "unit": "fold"},
      {"measurement": "mean (±SD) ratio of plasma metabolite AUC to oxymorphone AUC", "setting": "[1]; moderate-severe impairment", "value": "45.52 (39.2)"},
      {"measurement": "mean metabolite-to-parent ratio lower than in the control group", "setting": "[1]; moderate-severe impairment, in both plasma and urine", "value": "2,3 fold"},
      {"measurement": "mean amount excreted in the urine", "setting": "[2]; control group", "value": 38.1, "unit": "%"},
      {"measurement": "mean ratio metabolite:oxymorphone excreted in the urine", "setting": "[2]; healthy controls", "value": 79.05},
      {"measurement": "mean ratio metabolite:oxymorphone excreted in the urine", "setting": "[2]; mild hepatic impairment", "value": 39.43},
      {"measurement": "conversion of oxymorphone to the metabolite reduced by", "setting": "[2]; mild hepatic impairment", "value": "approximately 50%"},
      {"measurement": "mean amount excreted in the urine", "setting": "[2]; mild hepatic impairment", "value": 39.3, "unit": "%"},
      {"measurement": "mean ratio metabolite:oxymorphone excreted in the urine", "setting": "[2]; [4]", "value": 33.76},
      {"measurement": "conversion of oxymorphone to the metabolite reduced by", "setting": "[2]; [4]", "value": "~57", "unit": "%"},
      {"measurement": "mean amount excreted in the urine", "setting": "[2]; [4]", "value": 33.7, "unit": "%"}
    ]}
  ]
}
